For 14 molecules, IC50 results are on record in US11919901B2 (Syndax Pharmaceuticals, Inc., priority 2021, dated 2024).

Like-named read-outs stand apart in the source and are kept apart here.

The target of assay [1] is human Menin and N-terminal portion of human MLL (amino acids 4-43) (Homo sapiens (Human), UniProt O00255). Put plainly: Menin-MLL competition assay (HTRF). The assay is classed as binding. As to conditions: 1 hr incubation. An excerpt: Menin-MLL is a competition assay between human Menin and N-terminal portion of human MLL representing amino acids 4-43 of the protein. The interaction between Menin and MLL peptide was monitored by HTRF employing Terbium labeled anti-His6 antibody directed to the N-terminal His6-tag on recombinant Menin and FITC group covalently attached to the MLL peptide. The N-terminal fragment of MLL, retained in all MLL fusion proteins, is involved in the interactions with Menin, and this protein-protein interaction is critical for the MLL fusion proteins mediated leukemogenic transformations.
human Menin and N-terminal portion of human MLL (amino acids 4-43), sequence (O00255 whole entry, the tested form may be a part): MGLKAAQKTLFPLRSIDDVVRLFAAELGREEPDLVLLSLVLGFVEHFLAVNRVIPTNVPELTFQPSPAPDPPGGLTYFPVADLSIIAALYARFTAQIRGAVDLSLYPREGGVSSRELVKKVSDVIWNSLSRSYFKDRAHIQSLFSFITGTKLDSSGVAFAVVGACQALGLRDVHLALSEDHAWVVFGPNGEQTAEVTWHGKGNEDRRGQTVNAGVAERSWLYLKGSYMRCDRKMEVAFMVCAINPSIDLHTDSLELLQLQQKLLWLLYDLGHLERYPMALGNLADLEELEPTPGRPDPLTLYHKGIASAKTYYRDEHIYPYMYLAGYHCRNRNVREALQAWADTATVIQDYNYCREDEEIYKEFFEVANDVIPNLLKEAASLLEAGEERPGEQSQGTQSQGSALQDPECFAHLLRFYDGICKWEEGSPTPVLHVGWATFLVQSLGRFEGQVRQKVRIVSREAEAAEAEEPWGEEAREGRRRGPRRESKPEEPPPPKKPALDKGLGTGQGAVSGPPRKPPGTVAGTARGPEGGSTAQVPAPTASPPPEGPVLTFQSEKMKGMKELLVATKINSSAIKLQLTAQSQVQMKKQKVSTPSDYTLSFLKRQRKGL
For IC50 determination test compounds were prepared as 10 mM DMSO stock solutions. Considering DMSO as the vehicle in the assay system. Lower sub-stocks of 50 μM were prepared from the 10 mM stock solution. To test the compounds in assay, 3.16-fold serial dilutions are made in 100% DMSO. Mid-stock of 50× compounds (50 μM) were serially diluted (3.16 fold) in 100% DMSO in Polypropylene plate. In assay plate 1 micro-litre of the previously prepared compound dilution was stamped. H-FL-Menin diluted to 4 nM in assay buffer (50 mM Tris-HCl, pH 7.4, 50 mM NaCl, freshly prepared 1 mM DTT, 0.01% BSA, 0.005% Triton X-100) was pre-incubated with 8 nM anti-His6-Tb for 30 min at room temperature. […]
On the technique in general: Time-resolved FRET reads energy transfer from a long-lived donor to a nearby acceptor.

In the next assay the test system is MV4-11 cells. Briefly: Cell proliferation assay MV4;11 (CellTiter-Glo, 72 hours). The assay is classed as cell-based. As to conditions: Homo sapiens, read-out: MV4. In short, it runs like this: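 MV4-11 cells (MLL1-AF4 fusion) exposed 72 h at 37 °C to 8 compound concentrations, final 0.632–2000 nM. Viability by CellTiter-Glo luminescence as % of vehicle RLU; % max inhibition = 100 − viability at top concentration.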
A general note: ATP-based viability assays read luminescence as a measure of living cells.

Setting [2] is: MV4;11 leukemia cell line, 72 hours, 11 IC50.

Take `CCN(C(=O)c1cc(F)ccc1Oc1cncnc1N1CC2(CCN(C[C@H]3CC[C@H](NS(=O)(=O)CC)CO3)CC2)C1)C(C)C` [Example 52, N-Ethyl-2-((4-(7-(((2R,5S)-5-(ethylsulfonamido)tetrahydro-2H-pyran-2-yl)methyl)-2,7-diazaspiro[3.5]nonan-2-yl)pyrimidin-5-yl)oxy)-5-fluoro-N-isopropylbenzamide]: the IC50 is below 100 nM in assay [1] and 100 to 1000 nM in the assay on MV4-11 cells (setting [2]). As to `CC(C)N(CC(F)F)C(=O)c1cc(F)ccc1Oc1cncnc1N1CC2(CCN(C[C@@H]3CC[C@@H](NS(=O)(=O)NCC(F)F)CO3)CC2)C1` [Example 235, N-(2,2-Difluoroethyl)-2-((4-(7-(((2S,5R)-5-((N-(2,2-difluoroethyl)sulfamoyl)amino)tetrahydro-2H-pyran-2-yl)methyl)-2,7-diazaspiro[3.5]nonan-2-yl)pyrimidin-5-yl)oxy)-5-fluoro-N-isopropylbenzamide], in the assay on MV4-11 cells (MV4-11, 72 h, 11 IC50 (nM)), the IC50 was below 100 nM. As for `CC(C)N(CC(F)F)C(=O)c1cc(F)ccc1Oc1cncnc1N1CC2(CCN(C[C@@H]3CC[C@@H](NS(=O)(=O)N(C)CCO)CO3)CC2)C1` [Example 239, N-(2,2-difluoroethyl)-5-fluoro-2-((4-(7-(((2S,5R)-5-((N-(2-hydroxyethyl)-N-methylsulfamoyl)amino)tetrahydro-2H-pyran-2-yl)methyl)-2,7-diazaspiro[3.5]nonan-2-yl)pyrimidin-5-yl)oxy)-N-isopropylbenzamide], the IC50 with MV4-11 cells (setting [2]) was below 100 nM. Same read-out and setting: next, `CC(C)N(CC(F)F)C(=O)c1cc(F)ccc1Oc1cncnc1N1CC2(CCN(C[C@@H]3CC[C@@H](NS(N)(=O)=O)CO3)CC2)C1` [Example 240, N-(2,2-Difluoroethyl)-5-fluoro-N-isopropyl-2-((4-(7-(((2S,5R)-5-(sulfamoylamino)tetrahydro-2H-pyran-2-yl)methyl)-2,7-diazaspiro[3.5]nonan-2-yl)pyrimidin-5-yl)oxy)benzamide]: below 100 nM; `CCS(=O)(=O)N[C@@H]1CC[C@@H](CN2CCC3(CC2)CN(c2ncncc2Oc2ccc(F)cc2C(=O)N(CCC(F)F)C(C)C)C3)OC1` [Example 242, N-(3,3-Difluoropropyl)-2-((4-(7-(((2S,5R)-5-(ethylsulfonamido)tetrahydro-2H-pyran-2-yl)methyl)-2,7-diazaspiro[3.5]nonan-2-yl)pyrimidin-5-yl)oxy)-5-fluoro-N-isopropylbenzamide]: below 100 nM; `CC(C)N(C(=O)c1cc(F)ccc1Oc1cncnc1N1CC2(CCN(C[C@@H]3CC[C@@H](NS(=O)(=O)C4CC4)CO3)CC2)C1)C1COC1` [Example 247, 2-((4-(7-(((2S,5R)-5-(Cyclopropanesulfonamido)tetrahydro-2H-pyran-2-yl)methyl)-2,7-diazaspiro[3.5]nonan-2-yl)pyrimidin-5-yl)oxy)-5-fluoro-N-isopropyl-N-(oxetan-3-yl)benzamide]: below 100 nM. On the same count and under the same terms, next, `CC(C)N(C(=O)c1cc(F)ccc1Oc1cncnc1N1CC2(CCN(C[C@@H]3CC[C@@H](NS(=O)(=O)N4CCC4)CO3)CC2)C1)C1COC1` [Example 248, 2-((4-(7-(((2S,5R)-5-(Azetidine-1-sulfonamido)tetrahydro-2H-pyran-2-yl)methyl)-2,7-diazaspiro[3.5]nonan-2-yl)pyrimidin-5-yl)oxy)-5-fluoro-N-isopropyl-N-(oxetan-3-yl)benzamide]: below 100 nM. In the case of `CC(C)N(C(=O)c1cc(F)ccc1Oc1cncnc1N1CC2(CCN(C[C@@H]3CC[C@@H](NS(=O)(=O)N(C)C)CO3)CC2)C1)C1COC1` [Example 249, 2-((4-(7-(((2S,5R)-5-((N,N-Dimethylsulfamoyl)amino)tetrahydro-2H-pyran-2-yl)methyl)-2,7-diazaspiro[3.5]nonan-2-yl)pyrimidin-5-yl)oxy)-5-fluoro-N-isopropyl-N-(oxetan-3-yl)benzamide], in the assay with MV4-11 cells (setting [2]), the IC50 is below 100 nM.

For `CCS(=O)(=O)N[C@@H]1CC[C@@H](CN2CCC3(CC2)CN(c2ncncc2Oc2ccc(F)cc2C(=O)N(C(C)C)C2CCOCC2)C3)OC1` [Example 250, 2-((4-(7-(((2S,5R)-5-(Ethylsulfonamido)tetrahydro-2H-pyran-2-yl)methyl)-2,7-diazaspiro[3.5]nonan-2-yl)pyrimidin-5-yl)oxy)-5-fluoro-N-isopropyl-N-(tetrahydro-2H-pyran-4-yl)benzamide], the IC50 in the assay with MV4-11 cells (setting [2]) is below 100 nM. For `CCS(=O)(=O)N[C@@H]1CC[C@@H](CN2CCC3(CC2)CN(c2ncncc2Oc2ccc(F)cc2C(=O)N(C(C)C)[C@@H]2C[C@@H]4CC[C@H]2O4)C3)OC1` [Example 251, N-((1R,2R,4S)-7-Oxabicyclo[2.2.1]heptan-2-yl)-2-((4-(7-(((2S,5R)-5-(ethylsulfonamido)tetrahydro-2H-pyran-2-yl)methyl)-2,7-diazaspiro[3.5]nonan-2-yl)pyrimidin-5-yl)oxy)-5-fluoro-N-isopropylbenzamide], the IC50 in the assay on MV4-11 cells (setting [2]) is below 100 nM. For `CCS(=O)(=O)N[C@@H]1CC[C@@H](CN2CCC3(CC2)CN(c2ncncc2Oc2ccc(F)cc2C(=O)N(C(C)C)C2CC4(COC4)C2)C3)OC1` [Example 252, 2-((4-(7-(((2S,5R)-5-(Ethylsulfonamido)tetrahydro-2H-pyran-2-yl)methyl)-2,7-diazaspiro[3.5]nonan-2-yl)pyrimidin-5-yl)oxy)-5-fluoro-N-isopropyl-N-(2-oxaspiro[3.3]heptan-6-yl)benzamide], in the assay with MV4-11 cells (setting [2]), the IC50 was below 100 nM. Regarding `COCCN(C(=O)c1cc(F)ccc1Oc1cncnc1N1CC2(CCN(C[C@@H]3CC[C@@H](NS(=O)(=O)c4ccccc4)CO3)CC2)C1)C(C)C` [Example 254, 5-Fluoro-N-isopropyl-N-(2-methoxyethyl)-2-((4-(7-(((2S,5R)-5-(phenylsulfonamido)tetrahydro-2H-pyran-2-yl)methyl)-2,7-diazaspiro[3.5]nonan-2-yl)pyrimidin-5-yl)oxy)benzamide], the IC50 in the assay with MV4-11 cells (setting [2]) was below 100 nM. With `CCS(=O)(=O)N[C@@H]1CC[C@@H](CN2CCC3(CC2)CN(c2ncncc2Oc2ccc(F)cc2C(=O)N(C[C@@H](O)CO)C(C)C)C3)OC1` [Example 255, N-((R)-2,3-Dihydroxypropyl)-2-((4-(7-(((2S,5R)-5-(ethylsulfonamido)tetrahydro-2H-pyran-2-yl)methyl)-2,7-diazaspiro[3.5]nonan-2-yl)pyrimidin-5-yl)oxy)-5-fluoro-N-isopropylbenzamide], the IC50 in the assay on MV4-11 cells (MV4-11, 72 h, 11 IC50 (nM)) was 100 to 1000 nM. As to `CCS(=O)(=O)N[C@@H]1CC[C@@H](CN2CCC3(CC2)CN(c2ncncc2Oc2ccc(F)cc2C(=O)N(C(C)C)[C@@H]2CC[C@@H]2O)C3)OC1` [Example 258, 2-((4-(7-(((2S,5R)-5-(Ethylsulfonamido)tetrahydro-2H-pyran-2-yl)methyl)-2,7-diazaspiro[3.5]nonan-2-yl)pyrimidin-5-yl)oxy)-5-fluoro-N-((1R,2S)-2-hydroxycyclobutyl)-N-isopropylbenzamide], the IC50 with MV4-11 cells (setting [2]) is below 100 nM.
